Experimental findings from US5723319A, “Cultured cell line that inducibly expresses the hepatitis B virus genome, and uses thereof for screening antiviral substances” (Avid Therapeutics, Inc., priority 1995, dated 1998) are described below.

Like-named read-outs stand apart in the source and are kept apart here.

In assay [1] the test system is HBV (2.2.15 cells). The assay can be described thus: Inhibition of release of HBV DNA into the extracellular environment, 2.2.15 cells (dot blot). The assay is classed as cell-based, hepatitis B virus. An excerpt: The current state of, the art for the detection of HBV in tissue culture is the HepG2 or 2.2.15 cell line assay (Korba & Milman, Antiviral Research 15: 217-228 1991). This assay uses HepG2 cells (a human hepatoblastoma cell line) stably transfected with DNA from a clone containing two tandemly arranged copies of the HBV genome. […] The 2.2.15 cell line produces HBV at levels sufficient for measurement by conventional detection methods (Aoki-Sef et al., J. Infect. Dis. 164: 843-851 1988; Sells et al., Proc. Natl. Acad. Sci. USA 84: 4641-4644 1988).
Cells were seeded in 24 well plates at 4×10^5 cells/well and were grown to 100% confluency (approximately 3 days). At this time (day 0), cells were washed 3 times with PBS and 0.5 ml of medium containing various concentrations of known HBV inhibitors (ddC, 3TC and CDG). For each compound, four different concentrations and a negative control were tested, in the presence or in the absence of tetracycline. Typically, the medium was replaced 24 hours prior to collection with samples being collected four, eight, and twelve days after induction. Media were clarified by centrifugation and stored at -70° C. for further analysis. The procedure for susceptibility testing in a 96-well format was essentially the same as for the 24 well plate format except that cells were seeded in 96 well plates at 5×10^4 cells/well, 5 concentrations of drug were tested, and the volume of medium used was 100 μl. In addition, samples were removed from the wells for HBV DNA determination either with and without medium changes 24 hours prior to collection.
The samples were evaluated to determine the effective concentration of the inhibitors that inhibited the release of HBV DNA by 50%. This value is referred to as the EC50 for the compound.

Assay [2] has as its system HBV (Hep AD38 cells). Put plainly: Inhibition of release of HBV DNA into the extracellular environment, Hep AD38 cells (dot blot). The class given is cell-based, human hepatitis B virus. As to the method:
Samples were analyzed by dot blot hybridization to detect the presence HBV DNA in the cell culture supernatants (Korba and Milman, 1991, supra). Supernatants were mixed with an equal volume of denaturation solution (1M NaOH/10× SSC) and incubated for 20 minutes at room temperature. The denatured supernatant mixture was blotted on a nylon membrane (Amersham, Arlington Heights, Ill.) using a dot blot apparatus (Schleicher and Schuell, Keene, N.H.). Samples were neutralized by washing the membrane with 0.5 ml of 1M Tris, pH 7.2/2M NaCl followed by 0.5 ml of 20× SSC. Filters were then rinsed in 2× SSC, subjected to UV light crosslinking (Stratalinker), and prehybridized in 5× SSC, 5× Denhardt's Reagent, 20 mM NaPO4, pH 6.5, 50% formamide, 1% SDS, and 250 mg/L salmon sperm DNA for 1 hour at 42° C.
A 2.8 Kb fragment corresponding to the HBV sequences of pCMAYW was generated by PCR amplification, and served as a template for the synthesis of [α-^32 P]dCTP labelled hybridization probes by random priming according to the vendor's specifications (Megaprime DNA Labelling System, Amersham). Blots were hybridized with the radioactively labelled probe for sixteen hours at 42° C. The filters were then washed twice in 2× SSC/0.1% SDS at 25° C. for 20 minutes each and twice in 0.2× SSC/0.1% SDS at 65° C. for 20 minutes each. Radioactivity for individual samples was quantitated with a Fuji MacBAS 1000 Phosphorimager.
Cells were seeded in 24 well plates at 4×10^5 cells/well and were grown to 100% confluency (approximately 3 days). At this time (day 0), cells were washed 3 times with PBS and 0.5 ml of medium containing various concentrations of known HBV inhibitors (ddC, 3TC and CDG). For each compound, four different concentrations and a negative control were tested, in the presence or in the absence of tetracycline. Typically, the medium was replaced 24 hours prior to collection with samples being collected four, eight, and twelve days after induction. […]
The samples were evaluated to determine the effective concentration of the inhibitors that inhibited the release of HBV DNA by 50%. […]

The subject of assay [3] is HBV Dane particles (2.2.15 cells). The assay can be described thus: Induction of HBV Dane particles, 2.2.15 cells +/- tetracycline. The assay is classed as cell-based, hepatitis B virus. As for the experimental part: (§1) For each cell line, two 60 mm plates were seeded with 3×10^6 cells. When the cells reached full confluency, the medium was changed and tetracycline was removed from the medium of one the plates. […] The medium was adjusted to 10% glycerol (by volume) and incubated one hour at 4° C. Dane particles were pelleted by […] centrifugation and resuspended in PBS. The viral capsid was disrupted with 1% NP-40 (Sigma Chemical Co., St Louis, Mo.) and the capsid proteins were digested with proteinase K (50 μg/ml). The viral DNA was analyzed by dot blot hybridization using a radioactively labeled probe specific for HBV DNA.

In assay [4] the test system is HBV Dane particles (Hep AD38 cells). Put plainly: Induction of HBV Dane particles, Hep AD38 cells +/- tetracycline. The class given is cell-based, human hepatitis B virus. As for the experimental part:
as §1

The test system of assay [5] is HBV Dane particles (HepG2 cells). Put plainly: Induction of HBV Dane particles, HepG2 cells +/- tetracycline. The class given is cell-based, hepatitis B virus. As to the method: as §1
The subject of assay [6] is HBV DNA intermediates (Hep AD38 cells). The assay can be described thus: Southern blot of HBV DNA replicative intermediates (cccDNA, replicative intermediates, core DNA), Hep AD38 cells. The class given is cell-based, human hepatitis B virus. The following applies: Hep AD38, presence of tetracycline. As to the method:
For each of the Hep AD38, HepG2 and 2.2.15 cell lines, two 60 mm plates were seeded with 3×10^6 cells and allowed to grow as described above. When the cells became confluent, the medium was changed and tetracycline was removed from the medium on one of the plates. After a six day induction period, the medium again was removed and the cells were washed with PBS. Cells were then incubated at 37° C. for 10 minutes with 1 ml lysis buffer (0.5% SDS, 10 mM Tris-HCl, pH 7.5, 10 mM EDTA, 0.15M NaCl). The cell solutions were transferred to 1.5 ml Eppendorf tubes, adjusted to 0.5 M KCl, and incubated on ice for 15 minutes. The lysates were then clarified by high-speed centrifugation for 15 minutes at 4° C., and the supernatants were collected. DNA was isolated from the supernatants by phenol extraction followed by cold ethanol precipitation. Pelleted DNA was resuspended in 40 μl TE buffer.
For each cell line, two 60 mm plates were seeded with 3×10^6 cells. When the cells reached full confluency, the medium was changed and tetracycline was removed from the medium of one of the plates. After a 7 day induction period, the medium was removed and cells were washed with PBS. Cells were lysed by the addition of 0.6 ml of transfection lysis buffer (50 mM Tris, pH 8.0, 1 mM EDTA, 1% NP40) to each plate. The mixture was pipetted thoroughly to ensure complete cell lysis. […]

What is called EC50 is the concentration that produces a half-maximal response. A high value points to a less potent agent. Regarding `Nc1nc2c(ncn2C2CC(O)C(CO)C2)c(=O)[nH]1` (stereo not shown) [CDG], the EC50 turned out to be 19 nM in assay [1] and 11 nM in assay [2].

Consider `CN(C)C1C(=O)C(C(N)=O)=C(O)C2(O)C(=O)C3=C(O)c4c(O)cccc4C(C)(O)C3CC12` (stereo not shown) [tetracycline], for which the “HBV DNA released (Dane particles)” value is on record as 1.8 × 10^4 CPM/well in assay [3] (2.2.15, +Tet, Day 7); 4 × 10^3 CPM/well in assay [3] (2.2.15, +Tet., Day 4); 0 CPM/well in assay [4] (Hep AD38, +Tet, Day 7); 0 CPM/well in assay [4] (Hep AD38, +Tet., Day 4); 0 CPM/well in assay [5] (HepG2, +Tet, Day 7); 0 CPM/well in assay [5] (HepG2, +Tet., Day 4). Besides, the “response to the presence or absence of tetracycline with regard to release of HBV DNA into the medium” value in assay [3] (2.2.15, presence or absence of tetracycline) is “no response”. For the same compound, the “production of HBV Dane particles” value in assay [4] (Hep AD38, 0.3 μg/ml of tetracycline) is on record as “completely inhibits”. The “release of HBV DNA into the extracellular environment” value in assay [4] (Hep AD38, grown in the presence of tetracycline) is “do not release HBV DNA”. Further, the “HBV DNA intermediates made” value in assay [6] was “not made”.

`Nc1ccn([C@H]2CC[C@@H](CO)O2)c(=O)n1` [ddC]: the EC50 worked out at 6000 nM in assay [1] (Hepatitis B virus) and 8000 nM in assay [2] (Hepatitis B virus, HePAD38).

Regarding `Nc1ccn([C@@H]2CS[C@H](CO)O2)c(=O)n1` [3TC], the half-maximal effective concentration (EC50) in assay [1] (Hepatitis B virus) is 50 nM; in assay [2] (Hepatitis B virus, HePAD38) it was 20 nM.
